SMILES strings stand for the structures.

The melting point is the temperature of the solid-liquid transition.

In the case of `COC(=O)c1ccc(-c2ccncc2)cc1`, the melting point lay in the range of 99 to 101 °C.
`CCOC(=O)c1cn(Cc2cn(-c3ccc(N4CC(CNC(=O)OC)OC4=O)cc3F)nn2)nc1N` (configuration not stated) gave a melting point of 98 to 100 °C.
The compound `CCN(CC)C(=O)[C@H]1CN2CC[C@H]1[C@H](NCc1cc(OC)ccc1OC)[C@@H]2C(c1ccccc1)c1ccccc1` (relative stereo) registered a melting point of 153 to 154 °C.
As for `Nc1sc(-c2ccncc2)c(CN(C2CCCCC2)C2CCCCC2)c1C(=O)c1ccc(Cl)cc1`, the figure is 214 to 216 °C; as for `COc1cc(Oc2cccc(C(F)(F)F)c2)nc(C(=O)NN=C2CCCC2)c1`, 146 to 148 °C.
In turn, `CO[C@]1(c2cc(F)cc(Oc3ccc(/C(C)=N/O)cc3)c2)CCO[C@@H]1C` (racemic) gave a melting point of 126 to 127 °C.
`NS(=O)(=O)c1ccc(NN=Cc2ccc(F)cc2)cc1` returned a melting point of 205 to 206 °C.
`CCOC(=O)c1cc(OC)c(OC)c(OC)c1-c1c(C(=O)OCC)cc(OC)c2c1OCO2` displayed a melting point of 95 to 96.5 °C.
In turn, `CCOC(=O)C=CCOc1ccc(C23CC4CC(CC(C4)C2)C3)cc1` had a melting point of 91 to 93 °C.
`COc1ccc(-c2nc3cc(Cl)c(Cl)cc3n2C(=O)OCc2ccccc2)cc1N` displayed a melting point of 150 to 160 °C.
As for `CCNC(=O)c1ccc(-n2nnc(C(=O)NC3CC3)c2COCc2ccccc2)c(O)c1`, the melting point was 146 °C.
The value for `C1=Cn2cnnc2C(c2ccccc2)c2ccccc21` (configuration not stated) was 217 to 218 °C; that for `CCN(CC)C(=S)SC(C[N+](=O)[O-])c1ccccc1` (configuration not stated) was 81 to 82.5 °C.
In turn, `c1ccc(C2NCCOC2c2ccccc2)cc1` (configuration not stated) yielded a melting point of 70 to 72 °C.
The compound `N#Cc1cccc(C2=Nc3ccc(C#Cc4ccc(F)cc4)cc3NC(=O)C2)c1` displayed a melting point of 245 to 246 °C.
Compound `CC(CC(C)(C)C)CP(=O)(O)Cc1cc(C(C)(C)C)c(O)c(C(C)(C)C)c1` (configuration not stated) came in with a melting point of 108 to 110 °C.
`CCC(=O)N1CCC(NC(=O)Nc2ccccc2)CC1` came in with a melting point of 169 to 171 °C.
For `Clc1ccc(C=Cc2nc(CNc3ccc(CCCCn4ccnn4)cc3)co2)cc1Cl`, the melting point lay within 76.8 to 78.8 °C.
In turn, `CCCc1c(C(=O)C(C)C)c2ccc(CC(N)=O)cc2n1Cc1ccccc1Cl` came in with a melting point of 146 to 148 °C.
The value for `CCCCCCCCCCCCCCCCCCCCCC(=O)Oc1cc(C(C)(C)C)c(O)c(C(C)(C)C)c1` was 59 to 61 °C; that for `CCNS(=O)(=O)c1ccc(C2=C(c3ccccc3)C(=O)C(C)(C)O2)cc1Cl` was 72 to 73 °C; that for `O=C(CN1CCCNC1=O)N1CCC(C2c3ncc(Br)cc3CCc3cc(Cl)cc(Br)c32)CC1` (single isomer, unassigned; (+)) was 155 to 156 °C.
`CC(=O)NC(C)Cn1cc(-c2ccccc2)c2ccccc2c1=O` (configuration not stated) came in with a melting point of 177 °C.
`N#Cc1nn(-c2c(Cl)cc(C(F)(F)F)cc2Cl)c(CO)c1SC(F)(F)F`: the melting point came out at 118 °C.
As for `Nc1cccc(S(F)(F)(F)(F)F)c1`, the figure is 32 to 35 °C; as for `CCOCc1nc2c(N)nc3ccccc3c2n1CCN1C(C)=NOC12CCCC2`, 211 to 213 °C.
As for `C=CCN1CCN(C2=NC3(C=CC(=O)C=C3)C(Sc3ccccc3)=C2)CC1`, the figure is 175 °C.
Turning to `O=C(c1ccccn1)c1cnn2c(-c3cccnc3)ccnc12`, the melting point was 216 to 218 °C.
`CCCCCCCCCCC1(C)OCC(C=Cc2ccc(-c3ccccc3)cc2)OO1` (configuration not stated) displayed a melting point of 86 to 90 °C.
The value for `CC(C)(C)OC(=O)Nc1cc(OCc2ccccc2)c(OCc2ccccc2)cn1` was 163 °C.
`COc1cc2ncnc(Oc3cccc(Cl)c3)c2cc1OC`: the melting point is 152 to 153 °C.
Compound `CCOc1nn(Cc2ccccc2OCc2nc(-c3ccccc3)oc2C)cc1CCC(=O)O` registered a melting point of 127 to 128 °C.
In the case of `Cc1ccccc1C(=O)Nc1ccc(C(=O)N2Cc3ccccc3Cc3ccccc32)cc1`, the melting point lay within 198 to 203 °C.
`COc1cc(C(=O)O)ccc1Cc1cccc2ccc(NC(=O)CC3CCCC3)cc12` came in with a melting point of 248 to 250 °C.
`CC(=O)NCC1CN=C(c2ccccc2)c2cc(Cl)ccc2N1` (configuration not stated) registered a melting point of 240 to 245 °C.
`c1ccc(C2NCCc3c2[nH]c2ccccc32)cc1` (configuration not stated): the melting point is 175 to 177 °C.
The compound `Cn1c(Br)nc2c([N+](=O)[O-])cc(Br)cc21` came in with a melting point of 235 to 236 °C.
With `CCCCCCCCCCCCCCOc1ccc(C(=O)Nc2ccc(CO)cc2)cc1`, the melting point is 140 to 145 °C.
`N#Cc1cccc(NC(=O)CN2CCN(c3ncccc3C#N)CC2)c1` gave a melting point of 166 to 167 °C.
As for `O=C1c2cc(F)ccc2CCc2cccnc21`, the figure is 78 to 81 °C; as for `CC(NC(=O)C(Cc1ccc(OCc2ccccc2)cc1)NC(=O)OC(C)(C)C)C(=O)O` (configuration not stated), 160 to 162 °C; as for `CCCCCN(CCC12CC3CC(CC(C3)C1)C2)C(=O)NCCCc1cccnc1`, 99.9 to 105 °C.
For the compound `O=C(O)C(OCOc1ccc(-c2ccc(Cl)cc2)cc1)(C(F)(F)F)C(F)(F)F`, the melting point lay within 134 to 135 °C.
Turning to `CC(O)=C(C#N)C(=O)Nc1ccc(S(C)(=O)=O)cc1`, the melting point lay within 205 to 206 °C.
For `Cc1nn(-c2cc(OC(C)C)c(Cl)cc2F)c(C)c1N`, the melting point was in the range of 94 to 96.5 °C.
In the case of `CC(=O)OCCCC#Cc1ccccc1S(N)(=O)=O`, the melting point was in the range of 136 to 138 °C.
In the case of `Cc1cc(OCc2ccccc2)cc(OCCCC(C)C)c1C(=O)O`, the melting point was 83 to 85 °C.
Take `COCc1cc(Cl)ncn1`: the melting point was 34 to 36 °C.
Take `CCOC(=O)c1ccc([N+](=O)[O-])cc1CBr`: the melting point was 65 to 66 °C.
`O=C(O)c1cn(-c2ccc(F)cc2F)c2cc(-c3ccncc3)ccc2c1=O`: the melting point fell in the range of 291 to 292 °C.
The value for `O=[N+]([O-])c1cc(C(F)(F)F)c(Cl)c([N+](=O)[O-])c1Nc1cc(C(F)(F)F)cc(C(F)(F)F)n1` was 169 to 170 °C; that for `O=S(=O)(c1cc(SC(F)(F)F)[nH]c1-c1ccc(Cl)cc1)C(F)(F)F` was 118 to 122 °C; that for `O=C(O)c1ccc(C=Cc2cc3ccccc3s2)s1` was 236 to 237 °C.
Take `O=C1CCc2c1cccc2[N+](=O)[O-]`: the melting point was in the range of 94 to 97 °C.
The value for `[N-]=[N+]=NC[C@@H]1CN(c2cc(F)c(N3CNC(=O)C3)c(F)c2)C(=O)O1` was 186 to 188 °C.
Compound `COc1ccc2cc(C=NCc3ccccc3)ccc2c1` displayed a melting point of 115 to 117 °C.
The value for `OCCn1cc2c(n1)CN=C(c1ccccc1)c1cc(Cl)ccc1-2` was 173 to 175 °C.
The compound `c1ccn2c(=Nc3nccs3)snc2c1` yielded a melting point of 169 to 171 °C.
Take `CCCc1c(OCCCOc2ccc3c(c2)CCC(CC(=O)OC)C3=O)ccc(C(C)=O)c1O` (configuration not stated): the melting point lay within 96 to 98 °C.
Turning to `COC(=O)c1cc(OC)c(Cc2c(N)nc(N)nc2Cl)c(OC)c1`, the melting point is 228 to 229 °C.
Consider `O=Cc1ccc(OCc2ccccc2)c(O)c1`, for which the melting point lay in the range of 118 to 120 °C.
As for `CC(C)(C)OC(=O)NCCCCCC(=O)O`, the melting point lay in the range of 39 to 42 °C.
The compound `CN1CCN(c2ccc(Nc3ncc4c(Br)cc(-c5ccc(S(C)(=O)=O)cc5)n4n3)cc2)CC1` showed a melting point of 265 to 266 °C.
Compound `CCCCCCC(C(=O)N1CCC[C@H]1C(=O)O)n1cnc2cc(-c3ccccc3-c3nn[nH]n3)ccc21` (some centres not stated) showed a melting point of 145 to 150 °C.
As to `CN1CC(CN=[N+]=[N-])CC2c3cccc4c3c(cn4C)CC21` (configuration not stated), the melting point is 168 to 169 °C.
For the compound `CCCn1c(N)cc(=O)n(CC2CCCCC2)c1=O`, the melting point fell in the range of 121 to 122 °C.
On to `COc1cc(COc2nn(C)cc2C=O)ccc1OCc1nc(-c2ccco2)oc1C`, for which the melting point fell in the range of 155 to 156 °C.
`O=c1[nH]c2ccc(C(F)(F)F)cc2[nH]c1=O`: the melting point came out at 330 °C.
`Cc1cc(N2CCc3ncccc3C2)nc(N2CCC(F)(F)CC2)c1[N+](=O)[O-]` came in with a melting point of 168 to 169 °C.
The compound `Cc1nc(C(O)CNC(C)(C)C)ccc1OCc1ccccc1` (configuration not stated) displayed a melting point of 96 to 97 °C.
For the compound `CC(C)(C)C(NC(=O)c1ccc(Cl)cc1)NC(=NC#N)Nc1ccccc1F` (configuration not stated), the melting point was in the range of 208 to 209 °C.
In turn, `O=C(O)COc1ccc2c(-c3ccccc3F)noc2c1Br` returned a melting point of 180 to 182 °C.
The value for `O=[N+]([O-])c1ccc(CCN2CCN(c3ccc([N+](=O)[O-])cc3Cl)CC2)cc1` was 100 to 102 °C; that for `CC1(C)C(=O)N(CCCN(CCCN2C(=O)c3ccccc3C(C)(C)C2=O)Cc2ccccc2)C(=O)c2ccccc21` was 108 °C; that for `CCOC(=O)c1snc(CO)c1N` was 82 to 85 °C.
Compound `COC(=O)COc1ccc(NC(=O)c2cc(C(C)C)c(C(C)C)o2)cc1` returned a melting point of 104 to 105 °C.
The value for `COc1ccc(C(=O)/C=C/N(C)C)cc1COC(=O)C(C)(C)C` was 82 to 84 °C; that for `Cc1c(CC(=O)O)c2cc(O)ccc2n1C(=O)c1cccc(Cl)c1` was 158 to 160 °C; that for `CC1(C)SCN(CCCCN2CCN(c3nc4ccccc4s3)CC2)C1=O` was 99.5 to 100 °C.
Take `CCc1nc2c(N)nc3cc(OCC(=O)N4CCOCC4)ccc3c2n1CC(C)C`: the melting point lay within 219 to 220 °C.
The value for `CCC(C)(C)c1ccc(OCCCCc2c(O)cc3ccccc3c2C(N)=O)c(C(C)(C)CC)c1` was 118 to 124 °C; that for `CCCCCCCCCCCCOC(=O)C(N)CCCNC(=N)N` (configuration not stated) was 125 to 130 °C.
In turn, `C[C@H](Nc1nc(NC=O)nc([C@@H](C)F)n1)C1CCCCC1` gave a melting point of 127 °C.
For the compound `O=S(=O)(O)c1ccc2nc(NC3=NCCN3)[nH]c2c1`, the melting point was over 360 °C.
The compound `CCCCc1nn2c(c1Cc1ccc(-c3ccccc3C(=O)O)cc1)CCCC2` displayed a melting point of 162 °C.
`CCCCOc1cccn2c(=O)cc(C)nc12`: the melting point was in the range of 93 to 94 °C.
The compound `Cc1cc(C)cc(C(=O)N2CCN(C(=O)CNC3CN4CC3CC4Cc3ccccc3)C(c3ccc(Cl)c(Cl)c3)C2)c1` (configuration not stated) had a melting point of 69 to 71 °C.
